Assay results from US20260199323A1, “LIGAND COMPOUNDS FOR E3 UBIQUITIN LIGASE, PROTEIN DEGRADERS DEVELOPED ON BASIS OF LIGAND COMPOUNDS, AND USES THEREOF” (GLUETACS THERAPEUTICS (SHANGHAI) CO., LTD., priority 2021, published 2026).

Legend:
Daudi = experiment: CCK-8 tumor cell proliferation, Daudi; set-up: species or system Human; conditions: Table 13, designed based on BCR-ABL inhibitors; 96 h
Description: (§1) The tumor cells used herein were cultured in a cell culture medium listed in table 4 at 37° C. in an incubator with 5% CO2. Prior to experimentation, all cells used were correctly identified by STR profiling, and tested negative for mycoplasma through routine screenings.
(§2) IC50 values of the compounds of the present disclosure (including the compounds in Tables 1 and 3, and compounds of examples) were measured using the Meilun Cell Counting Kit-8 kit from Dalian Meilun Biotech Co., Ltd. Assay details are as follows: tumor cells were seeded in a 96-well plate at a density listed in Table 5. After 24 h, 100 μL of the inoculated cells were treated with 0.5 μL of the compounds of the present disclosure (including the compounds in Tables 1 and 3, and compounds of examples) at 10 different successively decreasing concentrations (starting at the highest concentration of 10 μM; 5-fold serial dilutions). After the cells were treated with the compounds of the present disclosure for a period of time, the cell viability detection reagent was added to the culture medium for cell viability assessment according to the instructions provided with the CCK-8 kit. […] The growth inhibition of the compounds of the present disclosure on cells was plotted by Prism Graphpad software, and the IC50 values of the compounds of the present disclosure were calculated therefrom.

PC-3 = experiment: CCK-8 tumor cell proliferation, PC-3; type: cell-based, Human; conditions: 96 h
Description: as §1, §2

PC-9 = experiment: CCK-8 tumor cell proliferation, PC-9; type: cell-based, Human; conditions: Table 11, designed based on EGFR inhibitors; 96 h
NCI-H358 = experiment: CCK-8 tumor cell proliferation, NCI-H358; set-up: species or system Human; conditions: Table 11, designed based on EGFR inhibitors; 96 h
Description: The tumor cells used herein were cultured in a cell culture medium listed in table 4 at 37° C. in an incubator with 5% CO2.
as §2, with “After” for “IC50 values of the compounds of the present disclosure (including the compounds in Tables 1 and 3, and compounds of examples) were measured using the Meilun Cell Counting Kit-8 kit from Dalian Meilun Biotech Co., Ltd. Assay details are as follows: tumor cells were seeded in a 96-well plate at a density listed in Table 5. After”

HCC827 = experiment: CCK-8 tumor cell proliferation, HCC827; type: cell-based, Human; conditions: Table 11, designed based on EGFR inhibitors; 96 h
Mino = experiment: CCK-8 tumor cell proliferation, Mino; type: cell-based, Human; conditions: 72 h
In short: (§3)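 Proliferation was measured by CCK-8. Plated cells received compound 24 h later at ten 5-fold dilutions beginning at 10 μM.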

Kasumi-1 = experiment: CCK-8 tumor cell proliferation, Kasumi-1; type: cell-based, Human; conditions: 72 h
In short: as §3

CCRF-CEM = experiment: CCK-8 tumor cell proliferation, CCRF-CEM; type: cell-based, Human; set-up: IC50 for inhibiting the proliferation of tumor cells, CCRF-CEM: scale not given here; conditions: Table 16, designed based on BET inhibitors; 96 h
In short: as §3

SK-OV-3 = experiment: CCK-8 tumor cell proliferation, SK-OV-3; conditions: Table 14, designed based on CDK4/6 inhibitors
Description: as §2

HGC-27 = experiment: CCK-8 tumor cell proliferation, HGC-27; type: cell-based, Human; conditions: Table 14, designed based on CDK4/6 inhibitors; 96 h
Description: as §1, §2

SU-DHL-6 = experiment: CCK-8 tumor cell proliferation, SU-DHL-6; type: cell-based, Human; conditions: Table 14, designed based on CDK4/6 inhibitors; 72 h
Description: as §1, §2

SR = experiment: CCK-8 tumor cell proliferation, SR; type: cell-based, Human; conditions: Table 14, designed based on CDK4/6 inhibitors; 72 h
In short: as §3

[1] = Table 16, designed based on BET inhibitors
[2] = Table 13, designed based on BCR-ABL inhibitors

Cc1ccc(NC(=O)c2ccc(CN3CCN(Cc4ccc5c(c4)CN(C4CCC(=O)NC4=O)C5=O)CC3)cc2)cc1Nc1nccc(-c2cccnc2)n1 (centres unmarked) [GT-02969, 4-((4-((2-(2,6-dioxopiperidin-3-yl)-1-oxoisoindolin-5-yl)methyl)piperazin-1-yl)methyl)-N-(4-methyl-3-((4-(pyridin-3-yl)pyrimidin-2-yl)amino)phenyl)benzamide]
IC50 for inhibiting the proliferation of tumor cells, Daudi (Daudi): A+

N#Cc1ccc(O[C@H]2CC[C@H](NC(=O)c3ccc(N4CCC(N5CCN(Cc6ccc7c(c6)CN(C6CCC(=O)NC6=O)C7=O)CC5)CC4)nn3)CC2)cc1Cl (some centres unmarked) [GT-02989, N-((1r,4r)-4-(3-chloro-4-cyanophenoxy)cyclohexyl)-6-(4-(4-((2-(2,6-dioxopiperidin-3-yl)-1-oxoisoindolin-5-yl)methyl)piperazin-1-yl)piperidin-1-yl)pyridazine-3-carboxamide]
IC50 for inhibiting the proliferation of tumor cells, PC-3 (PC-3; Table 10, designed based on AR inhibitors): A+

COc1cc2ncnc(Nc3ccc(F)c(Cl)c3)c2cc1NC(=O)/C=C/CN1CCN(Cc2ccc3c(c2)CN(C2CCC(=O)NC2=O)C3=O)CC1 (centres unmarked) [GT-03265, (E)-N-(4-((3-chloro-4-fluorophenyl)amino)-7-methoxyquinazolin-6-yl)-4-(4-((2-(2,6-dioxopiperidin-3-yl)-1-oxoisoindolin-5-yl)methyl)piperazin-1-yl)but-2-enamide]
IC50 for inhibiting the proliferation of tumor cells, PC-9 (PC-9): A+ | IC50 for inhibiting the proliferation of tumor cells, NCI-H358 (NCI-H358): A+ | IC50 for inhibiting the proliferation of tumor cells, HCC827 (HCC827): A+

Cc1sc2c(c1C)C(c1ccc(Cl)cc1)=N[C@@H](CC(=O)NCCN1CCN(Cc3ccc4c(c3)CN(C3CCC(=O)NC3=O)C4=O)CC1)c1nnc(C)n1-2 (stereo partly drawn) [GT-03296, 2-((S)-4-(4-chlorophenyl)-2,3,9-trimethyl-6H-thieno[3,2-f][1,2,4]triazolo[4,3-a][1,4]diazepin-6-yl)-N-(2-(4-((2-(2,6-dioxopiperidin-3-yl)-1-oxoisoindolin-5-yl)methyl)piperazin-1-yl)ethyl)acetamide]
IC50 for inhibiting the proliferation of tumor cells, Mino (Mino; [1]): A+ | IC50 for inhibiting the proliferation of tumor cells, Kasumi-1 (Kasumi-1; [1]): A+ | IC50 for inhibiting the proliferation of tumor cells, PC-3 (PC-3; [1]): A+ | IC50 for inhibiting the proliferation of tumor cells, CCRF-CEM (CCRF-CEM): A+

COc1cc2ncnc(Nc3ccc(Cl)c(Cl)c3F)c2cc1OCc1ccc2c(c1)CN(C1CCC(=O)NC1=O)C2=O (centres unmarked) [GT-03354, 3-(5-(((4-((3,4-dichloro-2-fluorophenyl)amino)-7-methoxyquinazolin-6-yl)oxy)methyl)-1-oxoisoindolin-2-yl)piperidine-2,6-dione]
IC50 for inhibiting the proliferation of tumor cells, NCI-H358 (NCI-H358): A+

Cc1ccc(NC(=O)c2ccc(CNCc3ccc4c(c3)CN(C3CCC(=O)NC3=O)C4=O)cc2)cc1Nc1nccc(-c2cccnc2)n1 (centres unmarked) [GT-03377, 4-((((2-(2,6-dioxopiperidin-3-yl)-1-oxoisoindolin-5-yl)methyl)amino)methyl)-N-(4-methyl-3-((4-(pyridin-3-yl)pyrimidin-2-yl)amino)phenyl)benzamide]
IC50 for inhibiting the proliferation of tumor cells, Mino (Mino; [2]): A+ | IC50 for inhibiting the proliferation of tumor cells, Kasumi-1 (Kasumi-1; [2]): A+ | IC50 for inhibiting the proliferation of tumor cells, Daudi (Daudi): A+

C=CC(=O)Nc1cc2c(Nc3ccc(F)c(Cl)c3)ncnc2cc1OCCCN1CCN(Cc2ccc3c(c2)CN(C2CCC(=O)NC2=O)C3=O)CC1 (centres unmarked) [GT-03411, N-(4-((3-chloro-4-fluorophenyl)amino)-7-(3-(4-((2-(2,6-dioxopiperidin-3-yl)-1-oxoisoindolin-5-yl)methyl)piperazin-1-yl)propoxy)quinazolin-6-yl)acrylamide]
IC50 for inhibiting the proliferation of tumor cells, PC-9 (PC-9): A+ | IC50 for inhibiting the proliferation of tumor cells, NCI-H358 (NCI-H358): A+

COc1cc2ncnc(Nc3ccc(Cl)c(Cl)c3F)c2cc1OC1CCN(Cc2ccc3c(c2)CN(C2CCC(=O)NC2=O)C3=O)CC1 (centres unmarked) [GT-03412, 3-(5-((4-((4-((3,4-dichloro-2-fluorophenyl)amino)-7-methoxyquinazolin-6-yl)oxy)piperidin-1-yl)methyl)-1-oxoisoindolin-2-yl)piperidine-2,6-dione]
IC50 for inhibiting the proliferation of tumor cells, PC-9 (PC-9): A+ | IC50 for inhibiting the proliferation of tumor cells, NCI-H358 (NCI-H358): A+

Cc1nc(Nc2ncc(C(=O)Nc3c(C)cccc3Cl)s2)cc(N2CCC(N(C)Cc3ccc4c(c3)CN(C3CCC(=O)NC3=O)C4=O)CC2)n1 (centres unmarked) [GT-03545, N-(2-chloro-6-methylphenyl)-2-((6-(4-(((2-(2,6-dioxopiperidin-3-yl)-1-oxoisoindolin-5-yl)methyl)(methyl)amino)piperidin-1-yl)-2-methylpyrimidin-4-yl)amino)thiazole-5-carboxamide]
IC50 for inhibiting the proliferation of tumor cells, Mino (Mino; [2]): A+ | IC50 for inhibiting the proliferation of tumor cells, Daudi (Daudi): A+

COc1cc(OC)c2c(=O)[nH]c(-c3ccc(N4CCC(N5CCN(Cc6ccc7c(c6)CN(C6CCC(=O)NC6=O)C7=O)CC5)CC4)cc3)nc2c1 (centres unmarked) [GT-03708, 3-(5-((4-(1-(4-(5,7-dimethoxy-4-oxo-3,4-dihydroquinazolin-2-yl)phenyl)piperidin-4-yl)piperazin-1-yl)methyl)-1-oxoisoindolin-2-yl)piperidine-2,6-dione]
IC50 for inhibiting the proliferation of tumor cells, Mino (Mino; [1]): A+ | IC50 for inhibiting the proliferation of tumor cells, PC-3 (PC-3; [1]): A+ | IC50 for inhibiting the proliferation of tumor cells, CCRF-CEM (CCRF-CEM): A+

Cc1nc2c(F)cc(-c3nc(Nc4ccc(N5CCC(N6CCN(Cc7ccc8c(c7F)CN(C7CCC(=O)NC7=O)C8=O)CC6)CC5)cn4)ncc3F)cc2n1C(C)C (centres unmarked) [GT-03900, 3-(4-fluoro-5-((4-(1-(6-((5-fluoro-4-(4-fluoro-1-isopropyl-2-methyl-1H-benzo[d]imidazol-6-yl)pyrimidin-2-yl)amino)pyridin-3-yl)piperidin-4-yl)piperazin-1-yl)methyl)-1-oxoisoindolin-2-yl)piperidine-2,6-dione]
IC50 for inhibiting the proliferation of tumor cells, SK-OV-3 (SK-OV-3): A+ | IC50 for inhibiting the proliferation of tumor cells, HGC-27 (HGC-27): A+ | IC50 for inhibiting the proliferation of tumor cells, SU-DHL-6 (SU-DHL-6): A+ | IC50 for inhibiting the proliferation of tumor cells, SR (SR): A+

Cc1nc2c(F)cc(-c3nc(Nc4ccc(N5CCC(N6CCN(Cc7cc8c(cc7F)C(=O)N(C7CCC(=O)NC7=O)C8)CC6)CC5)cn4)ncc3F)cc2n1C(C)C (centres unmarked) [GT-03901, 3-(6-fluoro-5-((4-(1-(6-((5-fluoro-4-(4-fluoro-1-isopropyl-2-methyl-1H-benzo[d]imidazol-6-yl)pyrimidin-2-yl)amino)pyridin-3-yl)piperidin-4-yl)piperazin-1-yl)methyl)-1-oxoisoindolin-2-yl)piperidine-2,6-dione]
IC50 for inhibiting the proliferation of tumor cells, SK-OV-3 (SK-OV-3): A+ | IC50 for inhibiting the proliferation of tumor cells, HGC-27 (HGC-27): A+ | IC50 for inhibiting the proliferation of tumor cells, SU-DHL-6 (SU-DHL-6): A+ | IC50 for inhibiting the proliferation of tumor cells, SR (SR): A+

Cc1nc2c(F)cc(-c3nc(Nc4ccc(N5CCC(N6CCN(Cc7cc(F)c8c(c7)CN(C7CCC(=O)NC7=O)C8=O)CC6)CC5)cn4)ncc3F)cc2n1C(C)C (centres unmarked) [GT-03902, 3-(7-fluoro-5-((4-(1-(6-((5-fluoro-4-(4-fluoro-1-isopropyl-2-methyl-1H-benzo[d]imidazol-6-yl)pyrimidin-2-yl)amino)pyridin-3-yl)piperidin-4-yl)piperazin-1-yl)methyl)-1-oxoisoindolin-2-yl)piperidine-2,6-dione]
IC50 for inhibiting the proliferation of tumor cells, SK-OV-3 (SK-OV-3): A+ | IC50 for inhibiting the proliferation of tumor cells, HGC-27 (HGC-27): A+ | IC50 for inhibiting the proliferation of tumor cells, SU-DHL-6 (SU-DHL-6): A+ | IC50 for inhibiting the proliferation of tumor cells, SR (SR): A+

Cc1sc2c(c1C)C(c1ccc(Cl)cc1)=N[C@@H](CC(=O)OC(C)(C)C)c1nnc(C)n1-2 [JQ-1, reference compound]
IC50 (PC-3; Table 16, designed based on BET inhibitors, read-out: IC50 for inhibiting the proliferation of tumor cells, PC-3): > 10 µM
